Reference: patent publication US20050085556A1, “Detection of cholesterol ozonation products” (priority 2003, published 2005)
Entries after “also recorded” stand apart in the source; their conditions may differ.

Experiments:
[1] = test system: J774.1 macrophages; assay: Lipid-loading assay (foam cell formation); assay type: cell-based, murine; conditions: LDL 100 μg/mL plus compound 20 μM, 72 h, oil red O stain
Experimental: Lipid-loading assay (foam cell formation). J774.1 macrophages were incubated in ATCC-recommended media containing 10% fetal bovine serum under a controlled atmosphere of 5 or 7% CO2 at 37° C., in 8-well chamber slides. […] At termination, cells were washed twice with PBS (pH 7.4). The cells were then fixed with 6% (v/v) paraformaldehyde in PBS for 30 minutes, rinsed with propylene glycol for 2 minutes and lipids were stained with 5 mg/ml Oil Red O for 8 minutes. The cells were counterstained with Harris' hematoxylin for 45 seconds, and background staining was removed with […] followed by washing once in PBS and once in tap water. Cover slips were mounted onto the glass slides using glycerol and the slide preparations were examined by light microscopy. The number of lipid-laden cells was scored out of a total of at least 100 cells counted in a single field in each slide, and expressed as a percentage of total cells. Photographs were taken at 100×magnification.

[2] = molecular target: LDL (apoB-100) (Homo sapiens, UniProt P04114); assay: Circular dichroism of LDL secondary structure; conditions: LDL 100 μg/ml with compound 10 μM, PBS pH 7.4, 37° C.; for random coil of LDL protein: normal LDL 27±2%; for α helical structure of LDL protein: normal LDL ~40±2%
Chain of LDL (apoB-100) (P04114 28-4563): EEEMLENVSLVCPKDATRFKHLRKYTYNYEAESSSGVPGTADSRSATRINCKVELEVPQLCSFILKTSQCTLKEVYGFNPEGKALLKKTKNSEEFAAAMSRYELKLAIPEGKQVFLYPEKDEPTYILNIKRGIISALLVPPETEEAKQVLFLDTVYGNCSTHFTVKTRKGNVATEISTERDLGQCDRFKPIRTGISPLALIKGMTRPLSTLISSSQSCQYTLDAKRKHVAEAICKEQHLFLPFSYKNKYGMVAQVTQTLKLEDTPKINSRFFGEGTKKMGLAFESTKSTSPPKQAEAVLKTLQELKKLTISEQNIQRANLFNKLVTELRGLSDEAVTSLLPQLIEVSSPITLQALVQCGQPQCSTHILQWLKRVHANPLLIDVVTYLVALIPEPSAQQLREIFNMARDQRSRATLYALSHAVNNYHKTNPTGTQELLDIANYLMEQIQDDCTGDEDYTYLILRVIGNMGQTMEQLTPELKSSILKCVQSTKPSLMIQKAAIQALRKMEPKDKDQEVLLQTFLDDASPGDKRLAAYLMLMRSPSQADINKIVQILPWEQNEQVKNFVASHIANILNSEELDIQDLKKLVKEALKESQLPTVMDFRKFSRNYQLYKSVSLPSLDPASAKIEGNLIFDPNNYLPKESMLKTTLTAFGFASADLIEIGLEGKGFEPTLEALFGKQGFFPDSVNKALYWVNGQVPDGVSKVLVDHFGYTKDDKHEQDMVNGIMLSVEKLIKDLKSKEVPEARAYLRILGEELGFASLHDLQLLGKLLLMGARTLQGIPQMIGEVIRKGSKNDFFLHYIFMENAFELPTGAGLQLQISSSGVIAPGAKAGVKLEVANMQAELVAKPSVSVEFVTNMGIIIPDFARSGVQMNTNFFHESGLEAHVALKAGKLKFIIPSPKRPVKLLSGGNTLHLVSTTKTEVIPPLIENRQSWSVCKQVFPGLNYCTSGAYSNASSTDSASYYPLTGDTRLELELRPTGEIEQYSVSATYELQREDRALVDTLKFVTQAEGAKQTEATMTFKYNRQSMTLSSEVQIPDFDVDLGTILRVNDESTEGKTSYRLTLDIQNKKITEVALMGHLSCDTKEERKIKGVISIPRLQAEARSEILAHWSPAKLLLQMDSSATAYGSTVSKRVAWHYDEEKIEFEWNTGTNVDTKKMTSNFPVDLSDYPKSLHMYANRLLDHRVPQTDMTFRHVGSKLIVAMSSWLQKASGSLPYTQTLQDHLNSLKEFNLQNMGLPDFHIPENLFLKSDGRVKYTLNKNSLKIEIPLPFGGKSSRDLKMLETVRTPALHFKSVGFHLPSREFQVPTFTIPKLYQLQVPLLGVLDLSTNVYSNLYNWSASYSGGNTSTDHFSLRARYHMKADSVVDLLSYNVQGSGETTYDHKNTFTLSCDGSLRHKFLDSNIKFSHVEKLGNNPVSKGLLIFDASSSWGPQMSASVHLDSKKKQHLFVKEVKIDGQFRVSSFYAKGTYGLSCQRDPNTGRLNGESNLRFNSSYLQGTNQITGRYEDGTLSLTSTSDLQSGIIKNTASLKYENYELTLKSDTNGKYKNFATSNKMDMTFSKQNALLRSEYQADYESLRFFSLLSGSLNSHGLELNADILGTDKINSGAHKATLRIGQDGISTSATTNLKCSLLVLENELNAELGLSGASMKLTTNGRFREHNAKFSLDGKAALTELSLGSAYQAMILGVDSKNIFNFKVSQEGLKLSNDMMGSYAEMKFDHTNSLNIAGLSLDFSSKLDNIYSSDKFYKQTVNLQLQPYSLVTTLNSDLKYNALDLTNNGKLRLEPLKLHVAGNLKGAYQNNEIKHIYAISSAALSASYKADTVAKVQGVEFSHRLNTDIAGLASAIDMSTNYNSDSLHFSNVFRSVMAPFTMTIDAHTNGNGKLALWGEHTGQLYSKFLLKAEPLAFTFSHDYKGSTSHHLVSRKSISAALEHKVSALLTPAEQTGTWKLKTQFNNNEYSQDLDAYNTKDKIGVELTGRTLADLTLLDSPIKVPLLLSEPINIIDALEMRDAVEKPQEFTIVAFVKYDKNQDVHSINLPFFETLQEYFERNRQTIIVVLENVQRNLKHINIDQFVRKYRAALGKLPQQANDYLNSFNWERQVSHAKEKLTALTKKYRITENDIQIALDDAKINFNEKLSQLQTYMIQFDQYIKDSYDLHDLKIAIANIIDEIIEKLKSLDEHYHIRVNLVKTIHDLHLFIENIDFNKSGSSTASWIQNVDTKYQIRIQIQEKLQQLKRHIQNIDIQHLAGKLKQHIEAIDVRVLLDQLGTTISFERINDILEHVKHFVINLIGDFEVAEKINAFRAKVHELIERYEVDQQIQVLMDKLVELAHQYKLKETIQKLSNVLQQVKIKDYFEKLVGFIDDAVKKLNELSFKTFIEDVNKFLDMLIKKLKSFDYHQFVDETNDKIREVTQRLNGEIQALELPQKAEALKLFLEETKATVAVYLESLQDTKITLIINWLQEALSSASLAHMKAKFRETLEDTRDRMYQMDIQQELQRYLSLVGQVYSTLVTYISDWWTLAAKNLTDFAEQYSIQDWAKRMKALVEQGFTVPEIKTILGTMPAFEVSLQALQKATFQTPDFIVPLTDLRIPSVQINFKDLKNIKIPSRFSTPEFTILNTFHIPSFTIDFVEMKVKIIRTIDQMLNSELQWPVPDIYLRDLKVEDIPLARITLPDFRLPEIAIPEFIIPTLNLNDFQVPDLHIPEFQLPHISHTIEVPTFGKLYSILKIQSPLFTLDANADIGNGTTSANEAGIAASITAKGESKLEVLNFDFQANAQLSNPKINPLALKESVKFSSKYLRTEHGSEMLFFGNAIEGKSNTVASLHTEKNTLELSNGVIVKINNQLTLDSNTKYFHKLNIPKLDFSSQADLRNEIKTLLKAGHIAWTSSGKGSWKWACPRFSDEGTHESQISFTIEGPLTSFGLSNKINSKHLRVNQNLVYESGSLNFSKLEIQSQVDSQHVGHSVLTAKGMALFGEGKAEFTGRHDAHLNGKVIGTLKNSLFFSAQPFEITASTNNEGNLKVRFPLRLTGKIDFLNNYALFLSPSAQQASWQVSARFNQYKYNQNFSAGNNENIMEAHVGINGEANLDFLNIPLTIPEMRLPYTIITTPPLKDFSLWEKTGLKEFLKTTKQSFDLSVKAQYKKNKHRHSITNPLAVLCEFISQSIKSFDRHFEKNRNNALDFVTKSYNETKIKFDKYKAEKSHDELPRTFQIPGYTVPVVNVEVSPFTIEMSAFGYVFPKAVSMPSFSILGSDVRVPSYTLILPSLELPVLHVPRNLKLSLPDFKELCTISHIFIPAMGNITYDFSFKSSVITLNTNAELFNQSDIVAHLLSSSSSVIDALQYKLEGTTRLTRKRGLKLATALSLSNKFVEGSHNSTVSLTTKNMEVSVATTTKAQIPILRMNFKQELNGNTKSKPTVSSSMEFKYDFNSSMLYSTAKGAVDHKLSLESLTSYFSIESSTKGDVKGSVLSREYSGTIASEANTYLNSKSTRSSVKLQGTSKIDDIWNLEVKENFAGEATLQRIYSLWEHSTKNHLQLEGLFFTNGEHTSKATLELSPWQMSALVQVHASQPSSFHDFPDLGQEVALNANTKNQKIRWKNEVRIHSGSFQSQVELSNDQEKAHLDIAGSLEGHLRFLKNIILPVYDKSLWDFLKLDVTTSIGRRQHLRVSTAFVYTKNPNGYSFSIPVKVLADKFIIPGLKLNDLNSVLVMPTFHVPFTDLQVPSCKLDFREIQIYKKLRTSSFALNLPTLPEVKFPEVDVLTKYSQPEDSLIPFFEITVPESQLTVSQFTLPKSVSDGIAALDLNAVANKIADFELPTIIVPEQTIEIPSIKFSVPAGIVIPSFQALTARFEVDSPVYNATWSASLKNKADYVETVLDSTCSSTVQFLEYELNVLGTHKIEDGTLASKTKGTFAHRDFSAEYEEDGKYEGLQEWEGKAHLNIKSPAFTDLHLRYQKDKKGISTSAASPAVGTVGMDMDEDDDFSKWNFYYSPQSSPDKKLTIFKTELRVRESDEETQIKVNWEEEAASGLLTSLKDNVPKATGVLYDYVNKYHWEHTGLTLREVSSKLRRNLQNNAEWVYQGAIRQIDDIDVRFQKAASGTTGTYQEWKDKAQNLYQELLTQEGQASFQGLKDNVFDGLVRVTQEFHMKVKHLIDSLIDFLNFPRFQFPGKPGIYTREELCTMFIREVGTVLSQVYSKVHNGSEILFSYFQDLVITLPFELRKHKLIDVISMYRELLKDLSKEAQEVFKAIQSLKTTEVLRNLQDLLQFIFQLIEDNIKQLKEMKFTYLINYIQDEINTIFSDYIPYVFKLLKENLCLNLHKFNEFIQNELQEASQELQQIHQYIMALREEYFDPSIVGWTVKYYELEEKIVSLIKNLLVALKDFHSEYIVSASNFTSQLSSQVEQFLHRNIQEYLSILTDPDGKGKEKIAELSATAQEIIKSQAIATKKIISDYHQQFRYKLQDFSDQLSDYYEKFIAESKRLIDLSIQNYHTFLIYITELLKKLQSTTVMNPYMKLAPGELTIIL
Experimental: Circular dichroism. […] Spectra were recorded in the peptidic range (200-260 nm). To increase the signal-to-noise ratio, multiple spectra (three) were averaged for each measurement.

SMILES | lipid-loading of macrophages (foam cell formation) [1] | random coil of LDL protein [2] | α helical structure of LDL protein [2]
CC(C)CCC[C@@H](C)[C@H]1CCC2C(CC=O)C([C@@]3(C)CC[C@H](O)CC3=O)CC[C@@]21C (stereo partly drawn) [4a, 3β-Hydroxy-5-oxo-5,6-secocholestan-6-al] | macrophages began lipid-loading and foam cells began to appear; also recorded: induces lipid-loading of macrophages to produce foam cells | ~39±2% | ~23±5%
CC(C)CCC[C@@H](C)[C@H]1CCC2C3C(CC[C@@]21C)[C@@]1(C)CC[C@H](O)C[C@@]1(O)[C@@H]3C=O (stereo partly drawn) [5a, 3β-Hydroxy-5β-hydroxy-B-norcholestane-6β-carboxaldehyde] | macrophages began lipid-loading and foam cells began to appear; also recorded: effect of ozonolysis product 4a upon macrophages was indistinguishable from the effect of ozonolysis product 5a | 32±4% | ~20±2%
